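Results reflect a 48-hour exposure of cells in 96-well plates to compound at five concentrations. At the GI50, growth is halved.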 Active and inactive are the calls of the source. No stated cut-off is given here; in the data, active = GI50 up to about 1.1 µM and inactive = higher.
Columns and labels:
Test in all cases: NCI anticancer screen, dose series, 48 h
ACHN = tested on: ACHN
MDA-MB-435 = tested on: MDA-MB-435
SF-295 = tested on: SF-295
OVCAR-3 = tested on: OVCAR-3
RPMI-8226 = tested on: RPMI-8226
NCI-H522 = tested on: NCI-H522
SK-MEL-28 = tested on: SK-MEL-28
RXF 393 = tested on: RXF 393
M14 = tested on: M14
NCI-H460 = tested on: NCI-H460
MDA-MB-231 = tested on: MDA-MB-231
SK-OV-3 = tested on: SK-OV-3
CAKI-1 = tested on: CAKI-1
SF-268 = tested on: SF-268
UACC-62 = tested on: UACC-62
T47D = tested on: T47D
SNB-19 = tested on: SNB-19
786-0 = tested on: 786-0
SK-MEL-2 = tested on: SK-MEL-2
LOX IMVI = tested on: LOX IMVI

Structure (SMILES)	GI50 (ACHN)	GI50 (MDA-MB-435)	GI50 (SF-295)	GI50 (OVCAR-3)	GI50 (RPMI-8226)	GI50 (NCI-H522)	GI50 (SK-MEL-28)	GI50 (RXF 393)	GI50 (M14)	GI50 (NCI-H460)	GI50 (MDA-MB-231)	GI50 (SK-OV-3)	GI50 (CAKI-1)	GI50 (SF-268)	GI50 (UACC-62)	GI50 (T47D)	GI50 (SNB-19)	GI50 (786-0)	GI50 (SK-MEL-2)	GI50 (LOX IMVI)
Sc1nnc(NNc2ccccc2)n1Nc1ccccc1	0.824 µM (active)	0.321 µM (active)	< 0.01 µM (active)	> 41.7 µM (inactive)	2.51 µM (inactive)	42.5 µM (inactive)	> 100 µM (inactive)	1.78 µM (inactive)	2.02 µM (inactive)	0.146 µM (active)	44.8 µM (inactive)	> 100 µM (inactive)	> 36.9 µM (inactive)	> 82.4 µM (inactive)	0.0427 µM (active)	0.528 µM (active)	> 75.9 µM (inactive)	> 71 µM (inactive)		
CC(=O)OCCc1cc2ccccc2oc1=O	> 100 µM (inactive)	> 100 µM (inactive)	> 100 µM (inactive)	> 100 µM (inactive)	> 100 µM (inactive)	> 100 µM (inactive)	> 100 µM (inactive)	> 100 µM (inactive)	> 100 µM (inactive)	> 100 µM (inactive)	> 100 µM (inactive)		> 100 µM (inactive)	> 100 µM (inactive)	> 100 µM (inactive)	> 100 µM (inactive)	> 100 µM (inactive)	> 100 µM (inactive)	> 100 µM (inactive)	> 100 µM (inactive)
O=C1CC(c2cccc(Cl)c2)n2cccc21 (stereo not drawn)	> 100 µM (inactive)	> 100 µM (inactive)	> 100 µM (inactive)	> 100 µM (inactive)	> 100 µM (inactive)		> 100 µM (inactive)	> 100 µM (inactive)	> 100 µM (inactive)		> 100 µM (inactive)	> 100 µM (inactive)	54.6 µM (inactive)	74.6 µM (inactive)	> 100 µM (inactive)	44.2 µM (inactive)	> 100 µM (inactive)	> 100 µM (inactive)	37.8 µM (inactive)	> 100 µM (inactive)
CCc1ccc2c(c1)CC1(C2)Cc2cc3c(cc2C1)C(=O)CC3 (stereo not drawn)	17.9 µM (inactive)	2.69 µM (inactive)	19.1 µM (inactive)	17.3 µM (inactive)	18.5 µM (inactive)	20.3 µM (inactive)		36.9 µM (inactive)	25.9 µM (inactive)		21.2 µM (inactive)	25.1 µM (inactive)			> 100 µM (inactive)	12.1 µM (inactive)		25.6 µM (inactive)	4.26 µM (inactive)	15.4 µM (inactive)
NC(CC1=CCC=CC1)C(=O)O (stereo not drawn)	> 100 µM (inactive)	71.8 µM (inactive)	60.3 µM (inactive)	51.5 µM (inactive)	9.2 µM (inactive)		80.5 µM (inactive)	70.5 µM (inactive)	80.2 µM (inactive)	59.3 µM (inactive)	> 100 µM (inactive)	98.2 µM (inactive)	> 100 µM (inactive)	> 100 µM (inactive)	> 100 µM (inactive)	> 100 µM (inactive)	> 100 µM (inactive)	> 100 µM (inactive)	53.7 µM (inactive)	91.8 µM (inactive)
C[Si](C)(C)OC1c2[nH]c3ccccc3c2CN2C(=O)CCC12 (stereo not drawn)	> 100 µM (inactive)	> 100 µM (inactive)		> 100 µM (inactive)	> 100 µM (inactive)	> 100 µM (inactive)	> 100 µM (inactive)		> 100 µM (inactive)	> 100 µM (inactive)	> 100 µM (inactive)	> 100 µM (inactive)	> 100 µM (inactive)	> 100 µM (inactive)	> 100 µM (inactive)	> 100 µM (inactive)	> 100 µM (inactive)	> 100 µM (inactive)	> 100 µM (inactive)	> 100 µM (inactive)
Cc1cc2c(cc1-c1cc3c(cc1C)C(C(C)C)=C(O)C(=O)/C3=C\Nc1c(C)n(C)n(-c3ccccc3)c1=O)/C(=C/Nc1c(C)n(C)n(-c3ccccc3)c1=O)C(=O)C(O)=C2C(C)C	47.5 µM (inactive)	79.3 µM (inactive)	> 100 µM (inactive)	50.2 µM (inactive)	71.9 µM (inactive)	> 100 µM (inactive)	> 100 µM (inactive)	26.1 µM (inactive)	50.1 µM (inactive)	54.1 µM (inactive)	42.1 µM (inactive)	> 100 µM (inactive)	> 100 µM (inactive)	> 100 µM (inactive)	> 100 µM (inactive)	> 100 µM (inactive)	> 100 µM (inactive)	62.1 µM (inactive)	> 100 µM (inactive)	
CN(C)/C=N\c1nncc2[nH]nnc12	> 100 µM (inactive)	> 100 µM (inactive)	> 100 µM (inactive)	> 100 µM (inactive)	> 100 µM (inactive)		> 100 µM (inactive)	> 100 µM (inactive)	> 100 µM (inactive)	> 100 µM (inactive)	> 100 µM (inactive)		> 100 µM (inactive)	> 100 µM (inactive)	> 100 µM (inactive)	> 100 µM (inactive)	> 100 µM (inactive)	> 100 µM (inactive)	> 100 µM (inactive)	
